According to patent publication US10517889B2, “Modulators of SMAD7 expression” (Ionis Pharmaceuticals, Inc., priority 2017, dated 2019):
Strand notation (5' to 3'): a small letter for the sugar, then the base; units joined by * are phosphorothioate-linked, units joined directly phosphodiester-linked; [ ] holds rarer units or linkages, { } end groups; capitals alone tell only the bases. k = constrained ethyl (cEt); [5mC] = 5-methylcytosine; d = 2'-deoxy (DNA)

Test system: human SMAD7 mRNA
Assay: Antisense inhibition of human SMAD7 mRNA expression in Hep3B cells by 3-10-3 cEt gapmers, 10,000 nM, electroporation (Example 2)
Assay type: cell-based
Conditions: Hep3B cells, electroporation with 10,000 nM antisense oligonucleotide, approximately 24 hours, SMAD7 mRNA by RT-PCR (RTS5062), relative to untreated control cells
How it was run: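 qRT-PCR (RTS5062) of SMAD7 mRNA, normalised to RIBOGREEN total RNA, gave percent inhibition relative to untreated controls. Hep3B cells at 20,000 per well received 10,000 nM oligonucleotide by electroporation, with ~24 h treatment.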

Compared with “830047 (kT*kT*k[5mC]*d[5mC]*dG*dA*dT*dT*dG*dG*d[5mC]*dA*dG*kG*kT*kT; antisense) [compound 830047]”, “830048 (kT*kT*kT*d[5mC]*d[5mC]*dG*dA*dT*dT*dG*dG*d[5mC]*dA*kG*kG*kT; antisense) [compound 830048]” is higher in “% Inhibition” value: 42% for the first, 57% for the second.

Compared with “830049 (kG*kT*kT*dT*d[5mC]*d[5mC]*dG*dA*dT*dT*dG*dG*d[5mC]*kA*kG*kG; antisense) [compound 830049]”, “830050 (kA*kG*kT*dT*dT*d[5mC]*d[5mC]*dG*dA*dT*dT*dG*dG*k[5mC]*kA*kG; antisense) [compound 830050]” is lower in “% Inhibition” value: 43% for the first, 39% for the second.

Compared with “830052 (kG*kA*kG*dT*dA*dA*d[5mC]*d[5mC]*dA*dG*d[5mC]*dT*dG*kT*k[5mC]*kT; antisense) [compound 830052]”, “830054 (kT*kG*kG*dG*dT*dG*dA*dG*dT*dA*dA*d[5mC]*d[5mC]*kA*kG*k[5mC]; antisense) [compound 830054]” is higher in “% Inhibition” value: 35% for the first, 48% for the second.

Compared with “830055 (kT*kT*kG*dG*dG*dT*dG*dA*dG*dT*dA*dA*d[5mC]*k[5mC]*kA*kG; antisense) [compound 830055]”, “830056 (kG*kT*kT*dT*dT*dG*dG*dG*dT*dG*dA*dG*dT*kA*kA*k[5mC]; antisense) [compound 830056]” is lower in “% Inhibition” value: 57% for the first, 40% for the second.

Going from “830057 (k[5mC]*kG*kT*dT*dT*dT*dG*dG*dG*dT*dG*dA*dG*kT*kA*kA; antisense) [compound 830057]” to “830058 (kG*kG*kT*dA*dG*dG*d[5mC]*dA*d[5mC]*dA*dT*d[5mC]*dA*kT*k[5mC]*kA; antisense) [compound 830058]”, the “% Inhibition” value falls from 42% to 22%.

Compared with “830059 (kG*kG*kG*d[5mC]*d[5mC]*dA*d[5mC]*d[5mC]*d[5mC]*dA*dG*dT*dG*kA*kG*k[5mC]; antisense) [compound 830059]”, “830060 (kT*kA*k[5mC]*d[5mC]*dA*d[5mC]*d[5mC]*d[5mC]*d[5mC]*dT*dG*dT*dG*kA*kA*kG; antisense) [compound 830060]” is lower in “% Inhibition” value: 22% for the first, 8% for the second.

First: 830061 (k[5mC]*kT*kA*d[5mC]*d[5mC]*dA*d[5mC]*d[5mC]*d[5mC]*d[5mC]*dT*dG*dT*kG*kA*kA; antisense) [compound 830061]
Second: 830062 (k[5mC]*k[5mC]*kT*dA*d[5mC]*d[5mC]*dA*d[5mC]*d[5mC]*d[5mC]*d[5mC]*dT*dG*kT*kG*kA; antisense) [compound 830062]
The “% Inhibition” value of the first is lower: 4% for the first, 17% for the second.

First: 830063 (kT*k[5mC]*k[5mC]*d[5mC]*dT*dA*d[5mC]*d[5mC]*dA*d[5mC]*d[5mC]*d[5mC]*d[5mC]*kT*kG*kT; antisense) [compound 830063]
Second: 830064 (kA*kT*kG*dG*dT*dG*d[5mC]*dT*d[5mC]*dT*dG*d[5mC]*d[5mC]*k[5mC]*kT*kT; antisense) [compound 830064]
The “% Inhibition” value of the first is higher: 37% for the first, 29% for the second.

First: 830065 (kA*kA*kT*dG*dG*dT*dG*d[5mC]*dT*d[5mC]*dT*dG*d[5mC]*k[5mC]*k[5mC]*kT; antisense) [compound 830065]
Second: 830066 (kA*kA*kA*dT*dG*dG*dT*dG*d[5mC]*dT*d[5mC]*dT*dG*k[5mC]*k[5mC]*k[5mC]; antisense) [compound 830066]
The “% Inhibition” value of the first is higher: 43% for the first, 37% for the second.

First: 830068 (kG*kT*kG*dA*dA*dA*dT*dG*dG*dT*dG*d[5mC]*dT*k[5mC]*kT*kG; antisense) [compound 830068]
Second: 830069 (kA*kA*kG*dG*dT*dA*dA*dG*d[5mC]*d[5mC]*dA*dG*d[5mC]*kT*k[5mC]*k[5mC]; antisense) [compound 830069]
The “% Inhibition” value of the first is lower: 39% for the first, 51% for the second.

Going from “830070 (kA*kA*kA*dG*dG*dT*dA*dA*dG*d[5mC]*d[5mC]*dA*dG*k[5mC]*kT*k[5mC]; antisense) [compound 830070]” to “830071 (kT*k[5mC]*kA*dA*dA*dG*dG*dT*dA*dA*dG*d[5mC]*d[5mC]*kA*kG*k[5mC]; antisense) [compound 830071]”, the “% Inhibition” value rises from 44% to 45%.

First: 830072 (kA*kT*k[5mC]*dA*dA*dA*dG*dG*dT*dA*dA*dG*d[5mC]*k[5mC]*kA*kG; antisense) [compound 830072]
Second: 830073 (kT*k[5mC]*kA*dG*dA*dT*d[5mC]*dA*dA*dA*dG*dG*dT*kA*kA*kG; antisense) [compound 830073]
The “% Inhibition” value of the first is lower: 28% for the first, 41% for the second.

Going from “830074 (k[5mC]*kT*k[5mC]*dA*dG*dA*dT*d[5mC]*dA*dA*dA*dG*dG*kT*kA*kA; antisense) [compound 830074]” to “830075 (kT*k[5mC]*kA*dG*dG*dG*dT*dG*dT*d[5mC]*dA*dG*d[5mC]*k[5mC]*k[5mC]*kA; antisense) [compound 830075]”, the “% Inhibition” value falls from 43% to 39%.

Going from “830076 (k[5mC]*kA*k[5mC]*dA*dT*dT*d[5mC]*dA*dG*dG*dG*dT*dG*kT*k[5mC]*kA; antisense) [compound 830076]” to “830077 (k[5mC]*k[5mC]*kA*d[5mC]*dA*dT*dT*d[5mC]*dA*dG*dG*dG*dT*kG*kT*k[5mC]; antisense) [compound 830077]”, the “% Inhibition” value falls from 43% to 37%.

Compared with “830078 (kA*k[5mC]*k[5mC]*dA*d[5mC]*dA*dT*dT*d[5mC]*dA*dG*dG*dG*kT*kG*kT; antisense) [compound 830078]”, “830079 (kA*kT*kA*d[5mC]*d[5mC]*d[5mC]*dT*dG*d[5mC]*dA*d[5mC]*dT*dT*kT*k[5mC]*kT; antisense) [compound 830079]” is higher in “% Inhibition” value: 0% for the first, 22% for the second.

Compared with “830080 (kT*kA*kT*dA*d[5mC]*d[5mC]*d[5mC]*dT*dG*d[5mC]*dA*d[5mC]*dT*kT*kT*k[5mC]; antisense) [compound 830080]”, “830081 (kG*kT*kG*dT*dA*dT*dA*d[5mC]*d[5mC]*d[5mC]*dT*dG*d[5mC]*kA*k[5mC]*kT; antisense) [compound 830081]” is lower in “% Inhibition” value: 32% for the first, 0% for the second.

First: 830082 (kG*kG*kT*dG*dT*dA*dT*dA*d[5mC]*d[5mC]*d[5mC]*dT*dG*k[5mC]*kA*k[5mC]; antisense) [compound 830082]
Second: 830083 (kA*kT*kG*dG*dT*dG*dT*dA*dT*dA*d[5mC]*d[5mC]*d[5mC]*kT*kG*k[5mC]; antisense) [compound 830083]
The “% Inhibition” value of the first is lower: 34% for the first, 54% for the second.

Compared with “830084 (kG*kA*kT*dA*d[5mC]*dA*d[5mC]*dT*dT*dA*dA*dT*d[5mC]*kA*kA*kA; antisense) [compound 830084]”, “830085 (k[5mC]*kA*kG*dG*dA*dT*dA*d[5mC]*dA*d[5mC]*dT*dT*dA*kA*kT*k[5mC]; antisense) [compound 830085]” is higher in “% Inhibition” value: 26% for the first, 27% for the second.

Going from “830086 (kT*kT*kT*dA*d[5mC]*dA*dG*dG*dA*dT*dA*d[5mC]*dA*k[5mC]*kT*kT; antisense) [compound 830086]” to “830087 (kT*kT*kT*dT*dA*d[5mC]*dA*dG*dG*dA*dT*dA*d[5mC]*kA*k[5mC]*kT; antisense) [compound 830087]”, the “% Inhibition” value falls from 40% to 35%.

Compared with “830088 (kG*kT*kT*dT*dT*dA*d[5mC]*dA*dG*dG*dA*dT*dA*k[5mC]*kA*k[5mC]; antisense) [compound 830088]”, “830089 (kA*kA*kG*dA*d[5mC]*d[5mC]*d[5mC]*dT*dG*dT*dA*dA*dG*k[5mC]*kT*kT; antisense) [compound 830089]” is lower in “% Inhibition” value: 52% for the first, 9% for the second.

First: 830090 (kA*kT*kA*d[5mC]*dA*d[5mC]*dA*dA*dG*dA*d[5mC]*d[5mC]*d[5mC]*kT*kG*kT; antisense) [compound 830090]
Second: 830091 (kA*kA*kT*dA*d[5mC]*dA*d[5mC]*dA*dA*dG*dA*d[5mC]*d[5mC]*k[5mC]*kT*kG; antisense) [compound 830091]
The “% Inhibition” value of the first is lower: 10% for the first, 37% for the second.

First: 830092 (kA*kT*kT*dA*dG*dT*d[5mC]*d[5mC]*d[5mC]*dA*dT*dG*dA*kA*kA*k[5mC]; antisense) [compound 830092]
Second: 830093 (k[5mC]*kT*k[5mC]*dA*dT*dT*dA*dG*dT*d[5mC]*d[5mC]*d[5mC]*dA*kT*kG*kA; antisense) [compound 830093]
The “% Inhibition” value of the first is higher: 43% for the first, 5% for the second.

First: 830094 (kT*k[5mC]*kT*dT*dA*d[5mC]*d[5mC]*dT*dG*dA*dA*dA*dG*k[5mC]*k[5mC]*k[5mC]; antisense) [compound 830094]
Second: 830096 (kA*kA*k[5mC]*dA*dA*d[5mC]*dA*dT*d[5mC]*d[5mC]*dT*dG*dA*kG*k[5mC]*kG; antisense) [compound 830096]
The “% Inhibition” value of the first is lower: 30% for the first, 44% for the second.

Going from “830098 (kA*kG*kA*d[5mC]*dA*dA*dA*d[5mC]*d[5mC]*dT*dT*d[5mC]*d[5mC]*kG*kA*kA; antisense) [compound 830098]” to “830101 (kG*k[5mC]*k[5mC]*d[5mC]*dG*d[5mC]*dT*d[5mC]*dT*d[5mC]*dA*dG*d[5mC]*k[5mC]*kA*kG; antisense) [compound 830101]”, the “% Inhibition” value rises from 37% to 46%.

Compared with “830102 (kA*kG*k[5mC]*d[5mC]*d[5mC]*dG*d[5mC]*dT*d[5mC]*dT*d[5mC]*dA*dG*k[5mC]*k[5mC]*kA; antisense) [compound 830102]”, “830103 (kA*kA*kG*d[5mC]*d[5mC]*d[5mC]*dG*d[5mC]*dT*d[5mC]*dT*d[5mC]*dA*kG*k[5mC]*k[5mC]; antisense) [compound 830103]” is lower in “% Inhibition” value: 43% for the first, 39% for the second.
